These results are taken from patent US20240246908A1 (ORION CORPORATION, priority 2021, published 2024).

The assay has as its system YAP-TEAD. Description: TEAD inhibition, Hippo Pathway TEAD Reporter MCF-7 luciferase assay. It is filed as cell-based. Conditions: Homo sapiens, MCF7, 24 h, Hippo Pathway TEAD Reporter MCF-7 cells, luciferase activity after 24 h; read-out: IC50 of the test compounds on YAP-TEAD inhibition (Group). In outline:
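MCF-7 cells carrying a TEAD-responsive firefly luciferase reporter, with nuclear YAP1 driving constitutive expression, were treated the day after plating with compounds (11 concentrations, 4 replicates; 0.1% DMSO control). After 24 h, luciferase was read by ONE-Glo luminescence and IC50 determined.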
By IC50 is commonly meant the concentration that inhibits the measured activity by half. For the compound `CN1C(=O)CCC1C(=O)Nc1cc(Oc2ccc(C(F)(F)F)cn2)cc2c1OCCC2` (stereo not drawn) [Compound 177, 1-Methyl-5-oxo-N-(6-((5-(trifluoromethyl)pyridin-2-yl)oxy)chroman-8-yl)-pyrrolidine-2-carboxamide], the IC50 was less than 50 nM.

Regarding `CN1C(=O)NCC1C(=O)Nc1cc(Oc2ccc(C(F)(F)F)cn2)cc2c1OCO2` (stereo not drawn) [Compound 178, 3-Methyl-2-oxo-N-(6-((5-(trifluoromethyl)pyridin-2-yl)oxy)benzo[d]-[1,3]dioxol-4-yl)imidazolidine-4-carboxamide], the IC50 was less than 50 nM. The figure for `O=C(Nc1cc(Oc2ccc(C(F)(F)F)cn2)cc2c1OCO2)C1CCC(=O)N1C1CC1` (stereo not drawn) [Compound 179, 1-Cyclopropyl-5-oxo-N-(6-((5-(trifluoromethyl)pyridin-2-yl)oxy)benzo[d]-[1,3]dioxol-4-yl)pyrrolidine-2-carboxamide] is less than 50 nM; for `CN1C(=O)NC[C@H]1C(=O)Nc1cc(Oc2ccc(C(F)(F)F)cn2)cc2c1OCO2` [Compound 180, (S)-3-Methyl-2-oxo-N-(6-((5-(trifluoromethyl)pyridin-2-yl)oxy)benzo-[d][1,3]dioxol-4-yl)imidazolidine-4-carboxamide] it is less than 50 nM.

With `CN1C(=O)NC[C@@H]1C(=O)Nc1cc(Oc2ccc(C(F)(F)F)cn2)cc2c1OCO2` [Compound 181, (R)-3-Methyl-2-oxo-N-(6-((5-(trifluoromethyl)pyridin-2-yl)oxy)benzo-[d][1,3]dioxol-4-yl)imidazolidine-4-carboxamide], the half-inhibitory concentration (IC50) fell in the range of 301 to 2000 nM. The same measure for `CN1C(=O)CCC1C(=O)Nc1cc(Oc2ccc(C(F)(F)F)cc2)cc2ccoc12` (stereo not drawn) [Compound 185, 1-Methyl-5-oxo-N-(5-(4-(trifluoromethyl)phenoxy)benzofuran-7-yl)pyrrolidine-2-carboxamide]: less than 50 nM; for `CN1C(=O)NCC1C(=O)Nc1cc(Oc2ccc(C(F)(F)F)cc2)cc2c1OCO2` (stereo not drawn) [Compound 186, 3-Methyl-2-oxo-N-(6-(4-(trifluoromethyl)phenoxy)benzo[d][1,3]dioxol-4-yl)-imidazolidine-4-carboxamide]: less than 50 nM; for `O=C1CC(C(=O)Nc2cc(Oc3ccc(C(F)(F)F)cc3)cc3c2OCC3)CCN1` (stereo not drawn) [Compound 187, 2-Oxo-N-(5-(4-(trifluoromethyl)phenoxy)-2,3-dihydrobenzofuran-7-yl)-piperidine-4-carboxamide]: less than 50 nM.

On to `CNC(=O)CN1C(=O)CCC1C(=O)Nc1cc(Oc2ccc(C(F)(F)F)cc2)cc2c1OCC2` (stereo not drawn) [Compound 188, 1-(2-(Methylamino)-2-oxoethyl)-5-oxo-N-(5-(4-(trifluoromethyl)phenoxy)-2,3-dihydrobenzofuran-7-yl)pyrrolidine-2-carboxamide], for which the 50% inhibitory concentration (IC50) was 301 to 2000 nM.

Turning to `NC(=O)CN1C(=O)CCC1C(=O)Nc1cc(Oc2ccc(C(F)(F)F)cc2)cc2c1OCC2` (stereo not drawn) [Compound 189, 1-(2-Amino-2-oxoethyl)-5-oxo-N-(5-(4-(trifluoromethyl)phenoxy)-2,3-dihydro-benzofuran-7-yl)pyrrolidine-2-carboxamide], the IC50 was less than 50 nM. On to `O=C1CCC(C(=O)Nc2cc(OC3CCC(F)(F)CC3)cc3c2OCC3)CN1` (stereo not drawn) [Compound 190, N-(5-((4,4-Difluorocyclohexyl)oxy)-2,3-dihydrobenzofuran-7-yl)-6-oxo-piperidine-3-carboxamide], for which the concentration for half-maximal inhibition (IC50) was 301 to 2000 nM. For `O=C1CCC(C(=O)Nc2cc(OC3CCC(F)(F)CC3)cc3c2OCCO3)CN1` (stereo not drawn) [Compound 191, N-(7-((4,4-Difluorocyclohexyl)oxy)-2,3-dihydrobenzo[b][1,4]dioxin-5-yl)-6-oxopiperidine-3-carboxamide], the IC50 was 301 to 2000 nM.

Turning to `CN1C(=O)NCC1C(=O)Nc1cc(Oc2ccc(C(F)(F)F)cc2)cc2c1OCCO2` (stereo not drawn) [Compound 192, 3-Methyl-2-oxo-N-(7-(4-(trifluoromethyl)phenoxy)-2,3-dihydrobenzo[b][1,4]-dioxin-5-yl)imidazolidine-4-carboxamide], the half-inhibitory concentration (IC50) was less than 50 nM. The figure for `CN1C(=O)NCC1C(=O)Nc1cc(Oc2ccc(C(F)(F)F)cn2)cc2cn[nH]c12` (stereo not drawn) [Compound 193, 3-Methyl-2-oxo-N-(5-((5-(trifluoromethyl)pyridin-2-yl)oxy)-1H-indazol-7-yl)-imidazolidine-4-carboxamide] is 301 to 2000 nM. Consider `CN1C(=O)NC[C@@H]1C(=O)Nc1cc(Oc2ccc(C(F)(F)F)cn2)ccc1F` [Compound 196, (R)—N-(2-Fluoro-5-((5-(trifluoromethyl)pyridin-2-yl)oxy)phenyl)-3-methyl-2-oxoimidazolidine-4-carboxamide], for which the half-inhibitory concentration (IC50) is less than 50 nM.

Take `CN1C(=O)OCC1C(=O)Nc1cc(Oc2ccc(C(F)(F)F)cn2)ccc1F` (stereo not drawn) [Compound 197, N-(2-Fluoro-5-((5-(trifluoromethyl)pyridin-2-yl)oxy)phenyl)-3-methyl-2-oxooxazolidine-4-carboxamide]: the IC50 is 50 to 300 nM. The same measure for `CN1C(=O)OC[C@@H]1C(=O)Nc1cc(Oc2ccc(C(F)(F)F)cn2)ccc1F` [Compound 198, (R)—N-(2-Fluoro-5-((5-(trifluoromethyl)pyridin-2-yl)oxy)phenyl)-3-methyl-2-oxooxazolidine-4-carboxamide]: 50 to 300 nM.

`CN1C(=O)OC[C@H]1C(=O)Nc1cc(Oc2ccc(C(F)(F)F)cn2)ccc1F` [Compound 199, (S)—N-(2-Fluoro-5-((5-(trifluoromethyl)pyridin-2-yl)oxy)phenyl)-3-methyl-2-oxooxazolidine-4-carboxamide]: the IC50 lay in the range of 301 to 2000 nM.

Regarding `COc1ccc(Oc2cc(C(F)(F)F)ccn2)cc1NC(=O)C1CNC(=O)N1C` (stereo not drawn) [Compound 200, N-(2-Methoxy-5-((4-(trifluoromethyl)pyridin-2-yl)oxy)phenyl)-3-methyl-2-oxoimidazolidine-4-carboxamide], the concentration for half-maximal inhibition (IC50) was 50 to 300 nM. The figure for `COc1ccc(Oc2cc(C(F)(F)F)ccn2)cc1NC(=O)C1CCC(=O)N1C` (stereo not drawn) [Compound 201, N-(2-Methoxy-5-((4-(trifluoromethyl)pyridin-2-yl)oxy)phenyl)-1-methyl-5-oxopyrrolidine-2-carboxamide] is 301 to 2000 nM; for `COc1ccc(Oc2ccc(F)cn2)cc1NC(=O)C1CCC(=O)N1C` (stereo not drawn) [Compound 202, N-(5-((5-Fluoropyridin-2-yl)oxy)-2-methoxyphenyl)-1-methyl-5-oxopyrrolidine-2-carboxamide] it is 301 to 2000 nM. With `COc1ccc(Oc2ccc(Cl)cn2)cc1NC(=O)C1CCC(=O)N1C` (stereo not drawn) [Compound 203, N-(5-((5-Chloropyridin-2-yl)oxy)-2-methoxyphenyl)-1-methyl-5-oxo-pyrrolidine-2-carboxamide], the half-maximal inhibitory concentration (IC50) fell in the range of 301 to 2000 nM.

`COc1ccc(COC2CCC(F)(F)CC2)cc1NC(=O)C1CCC(=O)N1C` (stereo not drawn) [Compound 205, N-(5-(((4,4-Difluorocyclohexyl)oxy)methyl)-2-methoxyphenyl)-1-methyl-5-oxopyrrolidine-2-carboxamide]: the IC50 is 301 to 2000 nM. As to `COc1ccc(OCC2CCC(F)(F)CC2)cc1NC(=O)C1CCC(=O)N1C` (stereo not drawn) [Compound 206, N-(5-((4,4-Difluorocyclohexyl)methoxy)-2-methoxyphenyl)-1-methyl-5-oxopyrrolidine-2-carboxamide], the IC50 was less than 50 nM. The figure for `COc1ccc(OC2CCCC(F)(F)CC2)cc1NC(=O)[C@@H]1CCC(=O)N1C` (stereo partly drawn) [Compound 207, (2S)—N-(5-((4,4-Difluorocycloheptyl)oxy)-2-methoxyphenyl)-1-methyl-5-oxopyrrolidine-2-carboxamide] is 50 to 300 nM; for `COc1ccc(OC2CCC(C(F)(F)F)CC2)cc1NC(=O)[C@H]1COC(=O)N1C` (stereo partly drawn) [Compound 208, (R)—N-(2-Methoxy-5-((4-(trifluoromethyl)cyclohexyl)oxy)phenyl)-3-methyl-2-oxooxazolidine-4-carboxamide] it is less than 50 nM. The figure for `COc1ccc(O[C@H]2CC[C@@H](C(F)(F)F)CC2)cc1NC(=O)[C@H]1CCC(=O)N1C` [Compound 209, (R)—N-(2-Methoxy-5-(((cis)-4-(trifluoromethyl)cyclohexyl)oxy)phenyl)-1-methyl-5-oxopyrrolidine-2-carboxamide] is less than 50 nM. The figure for `COc1ccc(O[C@H]2CC[C@@H](C(F)(F)F)CC2)cc1NC(=O)[C@@H]1CCC(=O)N1C` [Compound 210, (S)—N-(2-Methoxy-5-(((cis)-4-(trifluoromethyl)cyclohexyl)oxy)phenyl)-1-methyl-5-oxopyrrolidine-2-carboxamide] is less than 50 nM. In the case of `COc1ccc(Oc2ccc(C(F)F)cn2)cc1NC(=O)C1CCC(=O)N1C` (stereo not drawn) [Compound 211, N-(5-((5-(Difluoromethyl)pyridin-2-yl)oxy)-2-methoxyphenyl)-1-methyl-5-oxopyrrolidine-2-carboxamide], the IC50 is 50 to 300 nM. Take `COc1ccc(Oc2ccc(C(F)F)cn2)cc1NC(=O)C1CNC(=O)N1C` (stereo not drawn) [Compound 212, N-(5-((5-(Difluoromethyl)pyridin-2-yl)oxy)-2-methoxyphenyl)-3-methyl-2-oxoimidazolidine-4-carboxamide]: the IC50 is 50 to 300 nM. `CN1C(=O)NCC1C(=O)Nc1cc(Oc2ccc(C(F)F)cc2)cc2c1OCC2` (stereo not drawn) [Compound 213, N-(5-(4-(Difluoromethyl)phenoxy)-2,3-dihydrobenzofuran-7-yl)-3-methyl-2-oxoimidazolidine-4-carboxamide]: the IC50 was less than 50 nM. Consider `CN1C(=O)CC[C@H]1C(=O)Nc1cc(Oc2ccc(C(F)F)cc2)cc2c1OCC2` [Compound 214, (S)—N-(5-(4-(Difluoromethyl)phenoxy)-2,3-dihydrobenzofuran-7-yl)-1-methyl-5-oxopyrrolidine-2-carboxamide], for which the IC50 was less than 50 nM. For the compound `CN1C(=O)CC[C@@H]1C(=O)Nc1cc(Oc2ccc(C(F)F)cc2)cc2c1OCC2` [Compound 215, (R)—N-(5-(4-(Difluoromethyl)phenoxy)-2,3-dihydrobenzofuran-7-yl)-1-methyl-5-oxopyrrolidine-2-carboxamide], the IC50 was less than 50 nM.
